Reference: ChEMBL document CHEMBL3045659, “Molecular docking studies on analogues of quercetin with d-alanine:d-alanine ligase of Helicobacter pylori” (Med Chem Res, 2013)
Values after ≈ are worked out from the molar mass of the structure shown.

How the values were obtained:
[1] = biological target: T1, D-alanine--D-alanine ligase (Helicobacter pylori (strain HPAG1), UniProt Q1CTD3); experiment: Binding affinity to Helicobacter pylori Ddl by surface plasmon resonance biosensor technology
T1 sequence (Q1CTD3 whole entry): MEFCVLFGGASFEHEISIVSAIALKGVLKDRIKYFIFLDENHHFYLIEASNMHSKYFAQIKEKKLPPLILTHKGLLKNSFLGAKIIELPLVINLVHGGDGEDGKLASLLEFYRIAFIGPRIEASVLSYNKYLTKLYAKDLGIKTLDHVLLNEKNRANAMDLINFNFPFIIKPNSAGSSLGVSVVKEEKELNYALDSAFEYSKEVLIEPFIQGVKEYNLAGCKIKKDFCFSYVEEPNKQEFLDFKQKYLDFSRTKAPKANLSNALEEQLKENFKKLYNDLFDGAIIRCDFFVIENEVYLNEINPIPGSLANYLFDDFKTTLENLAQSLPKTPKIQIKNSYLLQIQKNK

Escherichia coli [2] = experiment: Antibacterial activity against Escherichia coli 25922 assessed as growth inhibition; type: functional
Helicobacter pylori [3] = experiment: Antibacterial activity against Helicobacter pylori 43504 assessed as growth inhibition; type: functional
Escherichia coli [4] = experiment: Antibacterial activity against Escherichia coli JM019 assessed as growth inhibition; type: functional
Helicobacter pylori [5] = experiment: Antibacterial activity against Helicobacter pylori SS1 assessed as growth inhibition; type: functional
[6] = biological target: T1, D-alanine--D-alanine ligase; experiment: Competitive inhibition of Helicobacter pylori Ddl using ATP as substrate
[7] = biological target: D-alanine--D-alanine ligase B (Escherichia coli K-12, UniProt P07862); experiment: Competitive inhibition of Escherichia coli DdlB using ATP as substrate

Structure (SMILES)	Kd [1]	MIC (Escherichia coli [2])	MIC (Helicobacter pylori [3])	MIC (Escherichia coli [4])	MIC (Helicobacter pylori [5])	IC50 [6]	Ki [6]	IC50 [7]
O=c1c(O)c(-c2ccc(O)c(O)c2)oc2cc(O)cc(O)c12 [QUERCETIN]	12.9 µM	300 µg/mL (≈ 993 µM)	100 µg/mL (≈ 331 µM)	300 µg/mL (≈ 993 µM)	200 µg/mL (≈ 662 µM)	48.5 µM	4.3 µM	19.9 µM
O=c1cc(-c2ccc(O)cc2)oc2cc(O)cc(O)c12 [APIGENIN]		> 200 µg/mL	25 µg/mL (≈ 92.5 µM)	200 µg/mL (≈ 740 µM)	25 µg/mL (≈ 92.5 µM)	133 µM	31 µM	163 µM
